# Patent publication US4581359A, “Pharmacological treatments with N-7-substituted derivatives of theophylline” (priority 1984, dated 1986)
# Several values for one entry are separate records, joined by “and”; a condition that tells them apart may be missing. Identical values can stand only once. Like-named read-outs stand apart in the source and are kept apart here.
# Tests used:
# [1] = Literature: pharmacokinetics of dyphylline and related derivatives in humans; details: human, in vivo; for Vd/F: po, analysis of Gisclon oral data
# [2] = Single and combined intravenous methyl xanthines in rabbits: heart rate, deaths, plasma concentrations (Example 6); assay type: in vivo, female rabbits; details: one rabbit each; normal about 220 bpm
# Method: T 40 mg/kg of aminophylline infused at the rate of 0.21 ml/min over 30
# T/D 40 mg/kg of aminophylline infused at the rate of 0.21 ml/min over 30
# T/E 40 mg/kg of aminophylline infused at the rate of 0.21 ml/min over 30
# T/P 40 mg/kg of aminophylline infused at the rate of 0.21 ml/min over 30
# [3] = cited from earlier work
# [4] = cited from earlier work; remark: listed apart in the source
# clinical = assay type: in vivo; details: for Cmax: iv, 1000 mg, after 20-minute intravenous infusion of 1000 mg
# Method: To confirm the data shown in Table XI, dyphylline, 1000 mg, was administered to twelve healthy male volunteers as a zero-order infusion (50 mg/min) or as three conventional tablets (2×400 mg, 1×200 mg).
# [5] = Dyphylline 20 min intravenous infusion in two healthy male subjects: pharmacokinetics, blood pressure, pulse (Example 2); assay type: in vivo, human; details: bolus injection
# [6] = cited from earlier work; remark: listed apart in the source
# [7] = cited from earlier work; remark: listed apart in the source
# [8] = Dyphylline intravenous infusion in rabbits: blood concentration, pharmacokinetics, toxicity (Example 1); assay type: in vivo, female New Zealand White rabbits
# Text: A high-pressure liquid chromatographic (HPLC) system consisted of a delivery pump (M-6000A, Waters Associates, Milford, Mass.), sample injection apparatus (Model U6K, Waters Associates, Milford, Mass.), 30-cm reverse phase column (μBondapak C18, Waters Associates, Milford, Mass.), UV detector (Model 440, Waters Associates, Milford, Mass.) with wavelength of 280 nm and a dual pen recorder (Soltec Co., Encino, Calif.) which were used at ambient temperature.
# Both dyphylline and theophylline stock standard solutions were prepared to contain 10, 40, 80, 120, 150, 320 or 640 mg of each in 50 ml of distilled water. 20 μl of each was then added into 0.38 ml of rabbit blood to prepare working blood standard solutions.
# The internal standard used was β-hydroxypropyl theophylline (Aldrich Chemical Co., Inc., Milwaukee, Wis.) in acetonitrile which was prepared in a 500 ml volumetric flask as a stock solution, and kept tightly sealed except during use throughout the experiment. Internal standard solution (0.4 ml) was added to an equal volume (0.4 ml) of sample to precipitate protein. After centrifuging for 10 minutes, the supernatant was injected into the HPLC. The HPLC operating conditions included a mobile phase composed of acetonitrile (6 percent V/V) in distilled water and a flow rate of 2.0 ml/min.
# Typical log blood dyphylline concentration versus time plots, for each of the three rabbits following zero-order infusion of 250 mg over fifteen minutes are presented in FIG. 1. […] (1975). Parameters obtained from linear least square fitting of the terminal data to a one-compartment model appear in Table I. The fitted line of the data can be seen in FIG. 1.
# [9] = Literature: pharmacokinetics of dyphylline and related derivatives in humans; details: human, in vivo, from Simons et al., read-out: Total Vd
# Text: Simons, et al., Allergy and Clin. Immunol. (1975) report the pharmacokinetics of dyphylline from seven different doses in seven patients and treat dyphylline as a one-compartment drug which means that Vc would be equal to Vd total since only one compartment is involved. This is, however, inconsistent with the data reported in the above-mentioned articles by Lawyer et al. Also, the data of Simons et al. (1975) can be used to generate the following lists wherein the estimated total volume of distribution of dyphylline (total Vd) is calculated from data presented by using the equation Vd=Dose/(Kel)(AUC): […]
# [10] = in vivo
# Method: One horse was administered acetyl promazine thiamyol sodium, quaifensin, and halothane to produce general anesthesia. Dyphylline (20 mg/kg) was given as an intravenous bolus injection in less than 15 seconds and aminophylline (10 mg/kg) was given as an infusion over about 20 minutes. Plasma and cerebral spinal fluid were collected and assayed by high pressure liquid chromatography for both dyphylline and theophylline.
# [11] = rabbit, blood, iv, 250 mg, 250.0 mg/rabbit over 15 minutes, alone, rabbits 1-3, mean
smiles,measurement,setting,value
"Cn1c(=O)c2c(ncn2CC(O)CO)n(C)c1=O (stereo not shown) [dyphylline, dihydroxypropyl theophylline]",Vd,"[1]; from Simons et al., read-out: Vd, range over dosage forms",0.58 to 0.98 L/kg
same,Vd/F,"[1]; 77.0 kg, complete bioavailability, read-out: central compartment volume",~52 L
same,Vd/F,"[1]; 77.0 kg, complete bioavailability, read-out: total volume of distribution",~67 L
same,Vd/F,"[1]; 84 percent bioavailability, read-out: Vc",~0.6 L/kg
same,Vd/F,"[1]; 84 percent bioavailability, read-out: Vd",~0.73 L/kg
same,Vd/F,"[1]; bioavailability 84 percent, read-out: central compartment volume",~44 L
same,Vd/F,"[1]; bioavailability 84 percent, read-out: total volume of distribution",~56 L
same,Vd/F,"[1]; total bioavailability, read-out: Vc",~0.68 L/kg
same,Vd/F,"[1]; total bioavailability, read-out: Vd total",~0.87 L/kg
same,"heart rate, individual drug treatment",[2],76 bpm
same,average volume of distribution,[3]; 25 mg/kg,1.01 L/kg
same,toxicity at 30 to 50 mcg/ml,"[3]; rabbit, in vivo",not toxic
same,water solubility,[4],high water solubility
same,drug related toxicities,"clinical; human, in vivo",No subjects reported any drug related toxicities
same,Cmax,"clinical; human, plasma, read-out: Maximum plasma concentration, average",30.1 µg/mL
same,Cmax,"clinical; human, plasma, read-out: Maximum plasma concentration, range",18.4 to 46.8 µg/mL
same,Vd,"clinical; human, plasma, 1000 mg IV, twelve volunteers, standard deviation 0.08, read-out: average total volume of distribution, IV",0.78 L/kg
same,difference between predose and peak drug effects on blood pressure and heart rate,clinical; α=0.05 level,not statistically significant
same,half-time of clearance from the central compartment,[5],four to nine
same,time post dosing to achieve plasma concentrations,[6]; Joos et al.,90 min
same,plasma concentration of dyphylline,[6]; combined with theophylline and proxyphylline (Bracher; Werdermann),less than 3.0 mcg/ml
same,"plasma concentration, each drug","[6]; dyphylline and proxyphylline (Joos et al.), 90 min",about 13 mcg/ml
same,pharmacokinetics at high dose,[7]; Poynor,may produce nonlinear pharmacokinetics
same,concentration not toxic in dogs,[7]; dogs,100 µg/mL
same,"Ccut, blood concentration at the time the infusion was stopped","[8]; 250.0 mg/rabbit zero-order infusion over 15 minutes, alone, rabbits 1-3, mean, 15 min",81.82 µg/mL and 112.5 µg/mL and 91.70 µg/mL
same,signs of toxicity,[8]; blood concentrations about 80 to 112 mcg/ml,did not exhibit any signs of toxicity
same,half-life,[8]; [11],35.6 min
same,k el,[8]; [11],0.000325 s⁻¹
same,Vd,"[8]; rabbit, blood, iv, 250 mg, 250.0 mg/rabbit over 15 minutes, alone, rabbits 1-3, mean, read-out: Vd1",0.895 L/kg
same,concentration at 0.25 h,"[8]; rabbit, blood, iv, 250 mg, 250.0 mg/rabbit zero-order infusion over 15 minutes, alone, rabbits 1-3, mean, read-out: Ccut, blood concentration at the time the infusion was stopped",80.8 µg/mL
same,concentration at 0.25 h,"[8]; rabbit, blood, iv, 250 mg, 15 minutes, three rabbits, read-out: blood concentration when the infusion was stopped",80 to 112 µg/mL
same,Vd,"[8]; rabbit, blood, iv, 250 mg, Table I, read-out: average apparent volume of distribution of dyphylline administered alone",0.82 L/kg
same,Vd,"[9]; 10 mg/kg, 10 mg/kg alcoholic solution with glycerol-guaiacolate solution",0.77 L/kg
same,Vd,"[9]; 10 mg/kg, 10 mg/kg alcoholic solution",0.98 L/kg
same,Vd,"[9]; 10 mg/kg, 10 mg/kg aqueous",0.93 L/kg
same,Vd/F,"[9]; im, 5 mg/kg, 5 mg/kg intramuscular",0.58 L/kg
same,Vd/F,"[9]; im, 10 mg/kg, 10 mg/kg intramuscular",0.8 L/kg
same,Vd/F,"[9]; po, 5 mg/kg, 5 mg/kg tablet",0.58 L/kg
same,Vd/F,"[9]; po, 10 mg/kg, 10 mg/kg tablet",0.72 L/kg
same,penetration into cerebral spinal fluid,[10],penetrate into cerebral spinal fluid
